# Test results from patent US20210260057A1, “COMPOSITIONS AND METHODS TARGETING GLUTAMINE AND ITS METABOLISM FOR DIAGNOSING AND TREATING CANCER AND THERAPY-ASSOCIATED SIDE EFFECTS” (CEDARS-SINAI MEDICAL CENTER, priority 2018, published 2021).
# Values joined by “and” are separate entries in the source; they are usually repeats but may differ in a detail not shown here. Equal entries are not always repeated.
# Key:
# [1] = tested on: CWR22Rv1 cells; assay: Seahorse XF-24 metabolic flux analysis, CWR22Rv1; type: cell-based, human; details: CWR22Rv1 in Ras^V12 fibroblast-CM; GPNA 10 μM
# Procedure: (§1) Seahorse XF-24 metabolic flux analysis. Oxygen consumption rate (OCR, pmol min-1) was measured with the Searhorse Bioscience XF24 extracellular flux analyzer. Cells were incubated in a CO2-free incubator for 1 h at 37° C. to allow for temperature and pH equilibration prior to loading into the XF24 apparatus. Initial assays were performed to optimize cell number, FCCP concentration and oligomycin concentration (data not shown). We used L-Glutamic acid γ-(p-nitroanilide) hydrochloride (GPNA, 10 μM), a specific glutamine […] inhibitor.
# [2] = tested on: C4-2B cells; assay: Seahorse XF-24 metabolic flux analysis, C4-2B; type: cell-based, human; details: C4-2B in Ras^V12 fibroblast-CM; GPNA 10 μM
# Procedure: as §1
# [3] = tested on: CWR22Rv1 cells; assay: 3D organotypic co-culture, epithelial proliferation by FACS (EpCAM+/Ki67+); type: cell-based, human; details: 3D co-cultures of fibroblasts and CWR22Rv1; P<0.05 (GPNA), P<0.001 (BPTES)
# Procedure: (§2) 3D organotypic co-culture. A modified version of the 3D organotypic co-culture system was performed in a collagen matrix similar to that previously reported (Stark H J, Baur M, Breitkreutz D, Mirancea N, and Fusenig N E. Organotypic keratinocyte cocultures in defined medium with regular epidermal morphogenesis and differentiation. J Invest Dermatol. 1999; 112(5):681-91). Matrix were prepared by mixing five volumes of rat tail collagen with two volumes of matrigel in one volume of 10×DMEM medium (GE Healthcare Life Sciences), and one volume of FBS (Atlanta Biologicals). CWR22Rv1 and primary mouse prostatic fibroblasts (WT or RAS^V12) were combined in a 1:3 ratio in the matrix. Nylon squares were coated with collagen and placed on metal grids in a 6-well plate. Matrix plugs containing cells, formed in 96 well plates (150 μl), were transferred onto the nylon squares and media was added to the level of the nylon mesh. Following treatments, the cells were dissociated from the matrix with collagenase and dispase for FACS analysis.
# [4] = tested on: CWR22Rv1 with CAF; assay: 3D co-cultures of CAF-CWR22Rv1, neuroendocrine gene panel rtPCR; type: cell-based, human; details: in the context of enzalutamide, 3 days, glutamine free media, well below control levels, F test P<0.0001
# Procedure: as §2
# (§3) RNA expression level. All real-time PCR assays were carried out using three technical replicates and three independent cDNA syntheses on a 7500 Real-Time PCR System (Applied Biosystems). Data were normalized using an internal control gene, either GAPDH or β-actin. Relative quantification of expression levels (RQ) was calculated using the ^2-ΔΔCt method.
# [5] = tested on: CWR22Rv1 and CAF tissue recombinants; assay: Sub-renal capsule tissue recombinant xenograft, intact mice; type: in vivo, mouse; details: GPNA vs control
# Excerpt: Tissue recombination mouse models.
# [6] = tested on: CWR22Rv1 and CAF tissue recombinants; assay: Castrate resistant sub-renal capsule xenograft (castration + enzalutamide)
# Procedure: Tissue recombination mouse models. Cell recombinants were prepared by mixing 2×10^5 epithelial (CWR22Rv1) cells with 6×10^5 CAFs or stromal cells expressing KRAS^V12 per site in collagen as described before (Banerj ee J, Mishra R, Li X, Jackson R S, 2nd, Sharma A, and Bhowmick N A. A reciprocal role of prostate cancer on stromal DNA damage. Oncogene. 2014; 33(41):4924-31). The mice were either left intact or castrated 1 week after grafting. […] Castrated mice were treated with enzalutamide (5 mg/kg) either alone or in combination with L-glutamic acid Υ-(p-nitroanilide) hydrochloride (GPNA; 10 mg/kg; Sigma-Aldrich) for three weeks. The tumor volumes were measured using digital calipers and calculated using the following formula: length (mm)×width (mm)×width (mm)×0.52. When the mice were sacrificed and tumors were excised and photographed. Formalin-fixed, paraffin-embedded (FFPE) xenograft tumor tissue was sectioned and stained with hematoxylin and eosin (H&E) and staining for chromogranin A, TUNEL, phosphorylated-hi stone H3 and phosphorylated-mTOR.
# [7] = tested on: RASAL3 mRNA in NAF; assay: RASAL3 mRNA expression (rtPCR) in NAF; type: cell-based, human; details: 5-day treatment; Bic 10^−5 M, Enza 10^−5 M, R1881 10^−9 M
# Procedure: as §3
# [8] = tested on: RASAL3 mRNA in CAF; assay: RASAL3 mRNA expression (rtPCR) in CAF; type: cell-based, human; details: 5-day treatment; Bic 10^−5 M, Enza 10^−5 M, R1881 10^−9 M, 5-Aza 5 mmol/L
# Procedure: as §3
# [9] = tested on: RASAL3 promoter; assay: Methylation specific PCR of RASAL3 exon 2 in CAF; type: cell-based, human; details: CAF after treatment
# Procedure: (FIG. 13A) Quantitative rtPCR analysis of RASAL3 in NAF and CAF was performed following 5 day treatment with bicalutamide (Bic, 10^−5 M), enzalutamide (Enza, 10^−5 M), R1881 (10^−9 M), or 5-Azacytidine (5-Aza, […]). RASAL3 expression was normalized GAPDH expression. Data represent the mean±SEM. *P<0.05, ***P<0.001, and ****P<0.0001, by two-way ANOVA followed by multiple comparison. Results are the average of at least three independent experiments. (FIG. 13B) MS-PCR of the RASAL3 exon 2 methylation status in CAF after treatment with enzalutamide, R1881, 5-Azacytidine and bicalutamide was performed. The PCR products in the lanes marked “U” indicate unmethylated templates for RASAL3 gene, whereas the products in the lanes marked “M” indicate methylated templates. Data are representative of three independent experiments.
# [10] = tested on: RASAL3 exon 2; assay: Bisulfite sequencing of RASAL3 exon 2 in CAF; type: cell-based, human; details: CAF treated with R1881 for 5 days
# Procedure: Bisulfite Sequencing. Bisulfite sequencing was performed as described previously (Haldar S, Dru C, Mishra R, Tripathi M, Duong F, Angara B, Fernandez A, Arditi M, and Bhowmick N A. Histone deacetylase inhibitors mediate DNA damage repair in ameliorating hemorrhagic cystitis. Sci Rep. 2016; 6(39257). Briefly, genomic DNA was extracted from the NAF and CAF samples and 200 ng of DNA was bisulfite converted by using the EZ DNA Methylation-Gold Kit (Zymo Research, Irvine, Calif.) according to the manufacturer's protocol. Three overlapping primers were used for amplification of Exon 2 region of RASAL3 by ZymoTaq DNA polymerase (Zymo Research) and subsequently cloned into the pCR2.1-TOPO vector (Invitrogen by Life Technologies, Carlsbad, Calif.). The primer sequences used to amplify the three regions were designed by using the Meth-Primer program (www.urogene.org/methprimer/) and are listed in Table 4. Five clones from each sample were sequenced by using Sanger's method.
# [11] = tested on: human prostate cancer cells (CWR22Rv1); assay: Gene expression in prostate cancer cells (FIG. 15A-D); type: cell-based; details: for Bone morphogenic protein (BMP) expression: CWR22Rv1 (FIG. 15A); for TET2 expression: FIG. 15C, 15D
# [12] = tested on: bone marrow fibroblasts; assay: Glutamine expression by bone marrow fibroblasts; type: cell-based; details: FIG. 15E, FIG. 17D
# Procedure: (§4) Measurements of glutamine. Glutamine was measured in blood plasma and conditioned media by using glutamine detection kit (Abcam) following manufacturer protocol. Deproteinization step was performed in plasma samples prior to glutamine detection. The absorbance was measured at 450 nm using a Bio-Rad Benchmark plus microplate spectrophotometer (Bio-Rad Laboratories).
# [13] = tested on: prostatic fibroblasts; assay: Glutamine in conditioned media of prostatic fibroblasts; type: cell-based; details: FIG. 17C
# Procedure: as §4
# [14] = tested on: prostate cancer epithelial cells; assay: ALDH (stem marker) in prostate cancer epithelial cells; type: cell-based; details: prostate cancer epithelial cells (FIG. 17A, 17B)
# [15] = tested on: prostate cancer (serum PSA); assay: PSA response of PCa patients on androgen targeted therapy; type: in vivo, human; parameters: PSA on treatment: unit not given beside the values
# Excerpt: Plasma glutamine level may be prognostic for ADT sensitivity. Considering the striking finding that glutamine can induce ADT resistance, we tested if glutamine concentrations can be associated with ADT sensitivity in prostate cancer patients. We measured blood plasma glutamine concentrations in 28 PCa patients that received ADT (Table 1). Of note, the specific androgen signaling-axis interventions in the patient pool included, androgen receptor antagonists: bicalutamide, enzalutamide, and apalutamide, as well as androgen synthesis inhibitors: leuprolide, goserelin, triptorelin, and abiraterone.
# [16] = tested on: CWR22Rv1; assay: qPCR of neuroendocrine marker genes, CWR22Rv1; type: cell-based, human; details: CWR22Rv1, L-glutamine alone vs vehicle; F-test P<0.0001
# Procedure: as §3
# [17] = tested on: C4-2B cells; assay: qPCR of neuroendocrine marker genes, C4-2B; type: cell-based, human; details: L-glutamine 2 mM, P<0.0001
# Procedure: as §3
# [18] = tested on: CWR22Rv1; assay: CWR22Rv1 proliferation by cell counting in conditioned media; type: cell-based, human; details: NAF-CM supplemented with 0.4 mM glutamine, 72 hrs; compared to CAF-CM
# Procedure: (FIG. 3A) Relative mRNA expression levels of CAF-marker genes in WT and Ras^V12 mouse fibroblast determined by quantitative rtPCR and analyzed using 2-way ANOVA (n≤3). (FIG. 3B) EpCAM-positive cancer epithelial was quantitated by FACS of 3D co-cultures of human epithelial (CWR22Rv1) cells and WT or Ras^V12 mouse fibroblasts. Statistical analysis was performed using two-tailed student's t test (n≤3). (FIG. 3C) ATP was measured in CWR22Rv1 after incubation with conditioned media human NAF or CAF or mouse WT or Ras^V12 fibroblast or oligomycin in glutamine free media (n≤3). Statistical analysis was performed using 1-way ANOVA with multiple comparisons. (FIG. 3D) The diagram represents the TCA cycle in CWR22Rv1 cells treated with NAF- or CAF-conditioned media for 72 hours prior to metabolome analysis (n≤3). (FIG. 3E) The metabolome analysis further indicated differential flux to aspartate, oxidized GSH, and GSH-reduced in CWR22Rv1 cells incubated with NAF- or CAF-conditioned media. (FIG. 3F) Glutamine concentrations were measured in the conditioned media from indicated mouse fibroblasts cultured for 72 hours. (FIG. 3D-FIG. 3F) Statistical analysis was performed using two-tailed student's t test (n≤3). (FIG. 3G) CWR22Rv1 proliferation was measured by cell counting following incubation with NAF and CAF conditioned media for 72 hrs in glutamine free media. […]
# [19] = tested on: CWR22Rv1; assay: Glutamine transporter gene expression, CWR22Rv1; type: cell-based, human; details: CWR22Rv1, glutamine 2 mM
# Procedure: as §3
# [20] = tested on: C4-2B; assay: Glutamine transporter and glutaminase gene expression, C4-2B; type: cell-based, human; details: glutamine 2 mM
# Procedure: as §3
# [21] = castrated, enzalutamide treated mice, addition of GPNA
structure (smiles),measurement,setting,value
"N[C@@H](CCC(=O)Nc1ccc([N+](=O)[O-])cc1)C(=O)O [GPNA, L-gamma-glutamyl-p-nitroanilide]","basal respiration, ATP, and maximal respiration (OCR)",[1],"restored basal respiration, ATP, and maximal respiration to that observed with wild type fibroblast-CM"
same,"basal respiration, ATP, and maximal respiration (OCR)",[2],"restored basal respiration, ATP, and maximal respiration to that observed with wild type fibroblast-CM"
same,"epithelial proliferation (Ki-67 staining of EpCAM+ cells, FACS)",[3],significantly decreased epithelial proliferation
same,mRNA expression of the panel of neuroendocrine biomarker genes,[4],significantly reduced
same,mitotic index (phosphorylated-histone H3),[5]; P<0.0001,reduced
same,tumor volume,[5]; P<0.001,reduced tumor volume
same,cell death (TUNEL),"[6]; GPNA + ADT vs ADT alone, P<0.001",elevated
same,localization of phosphorylated-mTOR (Ser-2481),"[6]; GPNA + ADT vs ADT alone, P<0.05",reduced
same,mitotic index (phosphorylated histone H3),[6]; GPNA + ADT vs androgen signaling blockage alone,did not significantly change
same,tumor size,"[6]; castrated mice, enzalutamide 5 mg/kg + GPNA 10 mg/kg for three weeks vs ADT alone, P<0.0001",significantly reduced tumor size
same,chromogranin A expression induced by castration and enzalutamide,[6]; [21],reduced chromogranin A expression
same,histology (H&E),[6]; [21],associated with karyolytic cells
C[C@]1(O)CC[C@H]2[C@@H]3CCC4=CC(=O)CCC4=C3C=C[C@@]21C [R1881],RASAL3 mRNA expression in NAF,[7],no effect
same,RASAL3 mRNA expression in CAF,[8],significantly elevated
same,methylation of the RASAL3 promoter (methylation specific PCR),[9],hypomethylation
same,"prevention of CpG methylation of RASAL3 exon 2, over vehicle treated CAF",[10],2.6 fold
CNC(=O)c1ccc(N2C(=S)N(c3ccc(C#N)c(C(F)(F)F)c3)C(=O)C2(C)C)cc1F [enzalutamide],RASAL3 mRNA expression in NAF,[7],downregulated
same,RASAL3 mRNA expression in CAF,[8],little effect
same,methylation of the RASAL3 promoter (methylation specific PCR),[9],hypermethylation
same,Bone morphogenic protein (BMP) expression,[11],upregulated
same,TET2 expression,[11],induces
same,glutamine expression in bone marrow fibroblasts,[12],promotes
same,glutamine expression in the conditioned media of prostatic fibroblasts,[13],promotes
same,ALDH (stem marker),[14],upregulates
same,PSA on treatment,[15]; individual PCa patient on the listed Rx,0.1 and 344.3 and <0.1 and 116.7
same,Outcome,"[15]; individual PCa patient, responsiveness to ADT based on serum PSA",Responsive (2×) and Non- (2×)
same,tumor growth under ADT,[6]; castrated mice treated with enzalutamide alone,expanded despite ADT
"NC(=O)CC[C@H](N)C(=O)O [glutamine, L-glutamine]",expression of neuroendocrine gene panel,[16],upregulated
same,neuroendocrine differentiation (marker gene expression),[17],induce neuroendocrine differentiation
same,Bone morphogenic protein (BMP) expression,[11],upregulated
same,TET2 expression,[11],upregulates
same,osteopotegrin (OPG) and FoxMl expression,[11]; increasing doses of Gln (FIG. 15B),upregulates
same,ALDH (stem marker),[14],upregulates
same,CWR22Rv1 proliferation,[18],restored CWR22Rv1 proliferation
same,SLC38A1 transporter expression,[19],did not seem to be regulated
same,expression of glutamine importers SLC1A5 and SCL38A2,[19]; time dependent,consistently increased
same,SLC38A1 transporter expression,[20],did not seem to be regulated
same,expression of glutamine importers SLC1A5 and SCL38A2,[20]; time dependent,consistently increased
same,GLS and GLS2 mRNA expression,[20]; within 6 hours of treatment,promote
